What was measured:
[1] = biological target: T1, MR-LBD binding to co-activator peptides (Homo sapiens, UniProt P08235, C808S); assay: co-factor peptide recruitment by surface plasmon resonance; conditions: 50 μM compound, relative to dexamethasone, seven peptides
T1 construct: MR-LBD (amino acids 712–984) with the mutations C808S; 6-HN tag (thrombin cleavable) (N); made in house
T1 sequence (P08235 712-984 C808S): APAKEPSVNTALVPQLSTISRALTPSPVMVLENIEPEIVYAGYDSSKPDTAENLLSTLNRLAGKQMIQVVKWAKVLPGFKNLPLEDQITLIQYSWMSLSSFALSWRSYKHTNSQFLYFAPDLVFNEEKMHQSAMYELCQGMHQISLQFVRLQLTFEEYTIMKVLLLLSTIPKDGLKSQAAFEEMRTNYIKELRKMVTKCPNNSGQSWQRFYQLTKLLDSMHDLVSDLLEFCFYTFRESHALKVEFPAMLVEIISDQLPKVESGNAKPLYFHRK
Method: Co-activator recruitment of MR was determined using surface plasmon resonance (SPR) biosensor (Biacore 3000, GE Healthcare) by probing the level of receptor binding to seven surface-immobilized co-activator peptides. All peptides carried an N-terminal biotin for surface-immobilisation, the following peptides and sequences were used:
Prior to the SPR measurements, excess dexamethasone was removed by gel filtration via a passage through a PD10 column (GE Healthcare) equilibrated in SPR running buffer (10 mM HEPES, 50 mM NaCl, 0,005% P20, pH 7.6). […] The surface was prepared through immobilization of the biotinylated peptides on a streptavidin chip (GE Healthcare) to levels of 1000±300 RU. The binding level at equilibrium was monitored for all samples including the reference sample that contained remaining traces of dexamethasone. All data was normalized to this reference sample in order to quantify the effects on peptide binding without bias by receptor instability. The surface was regenerated with 0.5% (w/v) SDS after each injection.

[2] = test system: uni-nephrectomised db/db mice; assay: organ protection in db/db uni-nephrectomised mice; assay type: in vivo
Method: Obese diabetic male db/db mice (BKS.Cg-Dock7^m +/+ Lepr^db/J homozygotes) and their littermate male db/m mice were obtained from the Jackson Laboratory (Bar Harbor, ME, USA). […] Mice were subjected to right uninephrectomy at 8 weeks of age to hasten the development of diabetic nephropathy as described previously [43]. Db/m mice that received a uninephrectomy at 8 weeks of age served as the operation control. […] All surgery was performed under isoflurane anesthesia, and all efforts were made to minimize suffering.
The blood glucose level and glycosylated hemoglobin (HbA1C) levels were monitored in tail blood samples using a blood glucose meter (Glucometer Elite XL, Bayer Healthcare, Elkhart, IN, USA) and the DC 2000+ HbA1C kit (Bayer Healthcare), respectively, before treatment and at the time of sacrifice. Twenty-four-hour urine was obtained from each mouse after placement in metabolic cages before treatment and at the time of sacrifice. Urine albumin was measured using the DC2000+ microalbumin reagent kit (Bayer Healthcare).
Mice were sacrificed under isoflurane anesthesia. Blood samples were obtained by cardiac puncture for the measurements of plasma compound, K^+ and creatinine concentrations. Plasma K^+ levels were determined on a Radiometer ABL 700 blood gas analyser (Radiometer, Copnchagen DK). Plasma creatinine levels were determined by LC-MS/MS. Urine creatinine was measured by the Jaffe method (Creatinine FS, REF117119910021, DiaSys). Kidneys were perfused through the heart with cold PBS and then excised. One piece of renal cortex was fixed in 10% neutralized formalin for histological staining.
Formalin-fixed renal cortex tissues were subsequently embedded in paraffin. Three-micrometer sections were cut from the tissue blocks and stained with periodic acid-Schiff (PAS). The PAS-positive glomerular matrix was quantitated in a blinded fashion by a computer-assisted method as previously described [43]. At least 20 glomeruli from each individual mouse were assessed. The PAS-positive material area in the mesangium was normalized by that of the total glomerular tuft where the percentage of mesangial matrix occupying each glomerulus area was rated. Glomerular sclerosis index was graded from 0 to 4+ as follows: 0 represents no lesion, 1+ represents sclerosis of <25% of the glomerulus, while 2 =, 3+ and 4+ represent sclerosis of 25% to 50%, >50% to 75%, and >75% of the glomerulus, respectively. A whole kidney average sclerosis index was obtained by averaging scores from all glomeruli on one section.

Structure (SMILES) | co-activator peptide binding [1] | FE K+ end ([2]; after 4 weeks treatment) [%] | FE Na+ end ([2]; after 4 weeks treatment) [%] | UAE w22 ([2]; after 4 weeks treatment) [µg 24h-1] | p-K+ end ([2]; after 4 weeks treatment) [mM] | u-K+ end ([2]; after 4 weeks treatment) [mmol/24h] | u-Na+ end ([2]; after 4 weeks treatment) [mmol/24h] | u-Na+/K+ end ([2]; after 4 weeks treatment) | UAE w18 ([2]; before treatment, 18 weeks of age) [µg 24h-1] | increased injury (glomerular ECM scoring) from week 18 to 22 ([2]; four week treatment)
C[C@]12CCC(=O)C=C1CC[C@@H]1[C@@H]2[C@@H](O)C[C@]2(C=O)[C@@H](C(=O)CO)CC[C@@H]12 [aldosterone] | strongest peptide binding | – | – | – | – | – | – | – | – | –
CCOC(=O)[C@H](CCc1ccccc1)N[C@@H](C)C(=O)N1CCC[C@H]1C(=O)O [enalapril] | – | 15.6 ± 0.4 | 0.18 ± 0.01 | 583 ± 97 | 4.4 ± 0.1 | 0.90 ± 0.07 | 0.36 ± 0.03 | 0.40 ± 0.01 | 958 ± 184 | prevented
